Square brackets hold non-standard residues; d marks the D form. Peptide text beside a SMILES is read from it. * marks the point of attachment. Sta = CC(C)C[C@H](N)[C@@H](O)CC(=O)O; Isovaleryl = CC(C)CC(=O)*
How the values were obtained:
LipPI12 lipase [1] = test: Effect of surfactants on LipPI12 lipase activity; format: biochemical, Leucosporodium antarcticum PI12; conditions: 0.1% surfactant, 20° C., 30 min
Protocol: (§1) The purified LipPI12 lipase and protease were mixed with surfactants (final concentration of 0.1%, v/v) and was incubated at 20° C. for 30 min prior to enzymatic assays. Lipase activity ?; Protease activity ? .
(§2) Surfactants or surface active agents are the most important constituents in the formulation of detergent. Enzyme and surfactants form unique interactions that affect the function of enzyme, i.e. whether to stabilize or destabilize. […] Lipase and protease LipPI12 was treated with various surfactants at a concentration of […] at 20° C. for 30 min before being subjected to lipase and protease assays colorimetrically. The study on the effect of LipPI12 lipase and its protease on various surfactants was carried out using 0.1% of surfactant, namely from TWEEN™ 20-80, TRITON™ X-100, SDS and SLS. […] Remarkably, LipPI12 protease was activated in the presence of TWEEN™ 80 and SLS, with 30 and 70% enhancement, respectively. […] The incubation with SDS also seemed to affect LipPI12 protease catalytic activity, where it dropped to only 27% of its control activity.
Target sequence in this assay (as listed by the source): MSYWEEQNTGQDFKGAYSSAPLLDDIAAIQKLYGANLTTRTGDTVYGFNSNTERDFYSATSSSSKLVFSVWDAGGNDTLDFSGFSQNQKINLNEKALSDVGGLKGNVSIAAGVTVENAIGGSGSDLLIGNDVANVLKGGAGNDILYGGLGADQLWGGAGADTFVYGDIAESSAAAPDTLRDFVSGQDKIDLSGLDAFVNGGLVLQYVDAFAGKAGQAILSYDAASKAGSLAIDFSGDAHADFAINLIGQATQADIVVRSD

LipPI12 protease [2] = test: Effect of surfactants on LipPI12 protease activity; format: biochemical, Leucosporodium antarcticum PI12; conditions: 0.1% surfactant, 20° C., 30 min
Protocol: as §1, §2

LipPI12 protease [3] = test: Effect of inhibitors on LipPI12 protease activity; format: biochemical, Leucosporodium antarcticum PI12; conditions: 1 mM inhibitor, 20° C., 30 min
Protocol: (§3) The final concentration of inhibitors was 1 mM. The LipPI12 lipase and protease were assayed with olive oil as substrate after incubation with inhibitors for 30 min.
(§4) Partial understanding of the enzyme catalysis involves the reaction with various inhibitors. […] Various inhibitors were tested at a final concentration of 1 mM (PMSF, EDTA and pepstatin). The purified enzyme was treated with various inhibitors at 20° C. for 30 min prior to measuring the residual activity colorimetrically.

LipPI12 lipase [4] = test: Organic solvent tolerance of LipPI12 lipase; format: biochemical, Leucosporodium antarcticum PI12; conditions: 3 ml enzyme solution + 1 ml solvent, 20° C., 30 min
Protocol: (§5) Protease activity ?; Lipase activity ? .
(§6) Study On LipPI12 organic solvent stability was carried out in reaction mixture containing purified LipPI12 and various solvents. The mixture was incubated at 20° C. with shaking rates at 150 rpm for 30 min. Control reaction was done by mixing the enzyme with water. Relative activity of lipase was determined according Kwon and Rhee (1986) method. Whereby protease assay was done according to Brock et, al., (1982). The effects of various organic solvents on the stability of the cold active LipPI12 were studied. A mixture of 3 ml enzyme solution and 1 ml of an organic solvent was incubated at 20° C. with shaking, and the remaining activity was measured after 30 min of incubation.

LipPI12 protease [5] = test: Effect of metal ions on LipPI12 protease activity; format: biochemical, Leucosporodium antarcticum PI12; conditions: 1 mM metal ion, 30 min at 20° C.
Protocol: (§7) Both the lipase and protease were treated with 1 mM of various metal ions for 30 mins prior to enzyme assays. Lipase activity ?; protease activity ? .
(§8) Various metal ions were tested by treating the purified enzyme with 1 mM of metal ions such as Na^+, Mg^2+, Ca^2+, Fe^2+, Mn^2+, K^+, Zn^2+ and Cu^2+ for 30 min at 20° C. It was subjected to lipase and protease assays after treatment. The effects of various metal ions were tested on the purified LipPI12 activity and the remaining activity was assayed using olive oil emulsion. […] This is an indication which explains the role of Ca ion which may work as a stabilizer to the molecule, as predicted in the LipPI12 3D model. Whereas, the beta roll motif, served as a metal binding site, presumably predicted for the Ca ions. […] Na^+ Mg^2+ and Fe^2+ have toxic effect to the enzyme. Other metal ions tested were CuCl2, ZnCl2 and MnCl2, which had obviously made the lipase to be slightly stable and with no elimination of activity relatively not less than 50% (FIG. 27).
Protease LipPI12 looks more susceptible to all metal ions tested. […] The incubation with Na^+ and […] ions had done little effect as compared to the destabilizing manner shown by divalent ions of Cu^2+ and Mn^2+. […] A novel binding site for Zn ion may be involved in protease LipPI12. Structural elucidation is the best way to decipher the findings. The activation effect of Ca ion in both lipase and protease of LipPI12 is caused by the nature of the psychrophilic enzyme. Huge conformational movement will probably allow active residue rearrangement and can provide better accessibility of substrate, thus giving rise to a unique enzyme like LipPI12. This is achieved via local flexibility and mobility as the enzyme from psychrophiles evolves to withstand the extreme conditions, not only the coldness but also the low water content and substrate availability. Metal ions have been recognized to have effects on the activity of various enzymes. They bind the substrate and orient them properly for the reaction to occur. Besides mediating oxidation-reduction reactions, they can also electrostatically stabilize or shield negative charges. On the other hand, based on the correlation between the enzymes and metal ions, these enzymes could be classified into two types: Metalloenzymes and Metal-activated enzyme. In Metalloenzyme, metal ions such as Fe, Cu, Mn, Co are tightly bound ion pairs. While in the metal-activated enzymes, the metal ions such as Na, K, Mg, and Ca are loosely bound metal ions from the solution. Based on these facts, the protease LipPI12 is considered as a metal-activated enzyme.

LipPI12 lipase [6] = test: Effect of metal ions on LipPI12 lipase activity; format: biochemical, Leucosporodium antarcticum PI12; conditions: 1 mM metal ion, 30 min at 20° C.
Protocol: as §7, §8

LipPI12 lipase [7] = test: Substrate specificity of LipPI12 lipase, para-nitrophenyl esters; format: biochemical, Leucosporodium antarcticum PI12; conditions: versus butyrate (C4), caprylate (C8), laurate (12)
Protocol: Values in bracket represent the fatty acid carbon chain length.
(§9) Various triglycerides (triacetin, tributyrin, tricaprylin, triolein) p-nitrophenol esters (p-nitrophenylbutyrate, p-nitrophenylcaprylate, p-nitrophenyllaurate, p-nitrophenylpalmitate) and natural oils (olive oil, soy bean oil, corn oil, sun flower oil, rice brain oil, coconut and palm oil) were tested for the cold active LipPI12 lipase activity. It was assayed at 20° C. for 30 min colorimetrically. The capability of the LipPI12 to hydrolyze different carbon chain lengths of triglycerides was investigated. […] LipPI12 lipase substrate specificity towards medium chain length was also observed in natural oils. […] LipPI12 low efficiency or inability to catalyze such substrate was probably due to improper substrate and active coordination and limited substrate accessibility as a result of cis conformation of aliphatic chain when compared to the trans conformation which is much linear. Artificial substrate was also used in the form of esters, namely para-nitrophenyl (pNP) esters containing carbon chain ranging from C4 (butyrate) to C16 (palmitate). […] Certainly, LipPI12 broad substrate specificity, which posed a huge prospect in application and the understanding of mechanism, is important. Nonetheless, the profile of substrate is a crucial point, where accessibility determines substrate specificity. […]

LipPI12 lipase [8] = test: Effect of inhibitors on LipPI12 lipase activity; format: biochemical, Leucosporodium antarcticum PI12; conditions: 1 mM inhibitor, 20° C., 30 min
Protocol: as §3, §4

isolate PI12 = test: Antibiotic resistance of isolate PI12; format: cell-based, Leucosporodium antarcticum
Protocol: The bacterium was grown in nutrient broth and agar plates at 4° C. without shaking. Visible growth was observed after one week of incubation. […] The growth of isolate PI12 was inhibited at 25-37° C.
Extracellular enzyme activities, by isolate PI12 namely protease and lipase, were also observed.

LipPI12 protease [9] = test: Organic solvent tolerance of LipPI12 protease; format: biochemical, Leucosporodium antarcticum PI12; conditions: 3 ml enzyme solution + 1 ml solvent, 20° C., 30 min
Protocol: as §5, §6

LipPI12 lipase [10] = test: Substrate specificity of LipPI12 lipase, pure triglycerides; format: biochemical, Leucosporodium antarcticum PI12; conditions: 20° C., 30 min, substrate 1:1 v/v
Protocol: Values in bracket represent the carbon chain length of each substrate. LipPI12 lipase was assayed with the pure triglycerides (1:1, v/v) as substrate.
as §9, with “important.” for “important. Nonetheless, the profile of substrate is a crucial point, where accessibility determines substrate specificity.”

For TWEEN™ 40, the “effect of surfactant on lipase activity” value (LipPI12 lipase [1]) was “retains its activity” and the “effect of surfactant on protease activity” value (LipPI12 protease [2]) was “retain its activity”.
`CC(C)CC(=O)N[C@H](C(=O)N[C@H](C(=O)N[C@@H](CC(C)C)[C@@H](O)CC(=O)N[C@@H](C)C(=O)N[C@@H](CC(C)C)[C@@H](O)CC(=O)O)C(C)C)C(C)C` [Pepstatin] (Isovaleryl-VV[Sta]A[Sta]-OH) was tested, and the “inhibition of protease (words)” value (LipPI12 protease [3]) was “drastically eliminated” and the “inhibition of protease (words)” value (LipPI12 protease [3]; listed as pepstatin) was “inhibited”.
`c1ccccc1` [benzene] was tested, and the “effect of organic solvent on lipase” value (LipPI12 lipase [4]) was “good stability”.
For `[Fe+2]` [Fe^2+], the “protease relative activity as compared to the control” value (from here on “protease relative activity”) (LipPI12 protease [5]) was ~100% and the “effect of metal ion on lipase activity” value (LipPI12 lipase [6]) was “toxic effect”.
In the case of `[K+]` [IC], the “effect of metal ion on protease activity” value (LipPI12 protease [5]) is reported as “little effect”.
`CCCCCCCCCCCCCCCC(=O)Oc1ccc([N+](=O)[O-])cc1` [pNP palmitate, p-nitrophenylpalmitate] was tested, and the “increment of activity relative to other pNP esters” value (LipPI12 lipase [7]) was 60%.
In the case of `[Cl][Fe]([Cl])[Cl]` [FeCl3], the “effect of metal ion on protease activity” value (LipPI12 protease [5]) is reported as “do not affect”.
With `CCCCCC` [hexane] the “effect of organic solvent on lipase” value (LipPI12 lipase [4]) was “total elimination of activity”.
`CCCCCCCCCCCCOS(=O)(=O)[O-].[Na+]` [SDS] was tested, and the “protease activity remaining, of control activity” value (LipPI12 protease [2]) was 27%.
With `O=C(O)CN(CCN(CC(=O)O)CC(=O)O)CC(=O)O` [EDTA, ethylene diamine tetraacetic acid] the “inhibition of protease (words)” value (LipPI12 protease [3]) was “partially inhibited” and the “inhibition of lipase” value (LipPI12 lipase [8]) was “partially inhibited”.
With `[Ca+2].[Cl-].[Cl-]` [CaCl2] the “protease relative activity” value (LipPI12 protease [5]) was ~100%, the “effect of metal ion on lipase activity” value (LipPI12 lipase [6]) was “activator” and the “lipase activity as compared to the control” value (LipPI12 lipase [6]; olive oil emulsion) was 115%.
In the case of `[Cl][Cu][Cl]` [CuCl2], the “effect of metal ion on protease activity” value (LipPI12 protease [5]) is reported as “do not affect” and the “protease relative activity” value (LipPI12 protease [5]) is reported as 4%.
`[Cl-].[Cl-].[Mg+2]` [Mg^2+, MgCl2] was tested, and the “effect of metal ion on protease activity” value (LipPI12 protease [5]) was “activator”, the “protease relative activity” value (LipPI12 protease [5]) was ~100% and the “effect of metal ion on lipase activity” value (LipPI12 lipase [6]) was “toxic effect”.
With `[Na+]` [Na^+] the “effect of metal ion on protease activity” value (LipPI12 protease [5]) was “little effect” and the “effect of metal ion on lipase activity” value (LipPI12 lipase [6]) was “toxic effect”.
For `O=C(N[C@H](CO)[C@H](O)c1ccc([N+](=O)[O-])cc1)C(Cl)Cl` [Chloramphenicol], the “resistance of isolate PI12” value (isolate PI12) was “resistance”.
For TRITON™ X-100, the “effect of surfactant on lipase activity” value (LipPI12 lipase [1]) was “retains its activity” and the “effect of surfactant on protease activity” value (LipPI12 protease [2]) was “retain its activity”.
`[Cl-].[Cl-].[Zn+2]` [ZnCl2] was tested, and the “effect of metal ion on protease activity” value (LipPI12 protease [5]) was “activator” and the “protease relative activity” value (LipPI12 protease [5]) was 170%.
For dimethylsulfonyl, the “effect of organic solvent on protease” value (LipPI12 protease [9]) was “tolerance” and the “increase of lipase activity” value (LipPI12 lipase [4]) was ~80%.
For `CCCCCCCCCCCCOS(=O)(=O)[O-].[Na+]` [SLS, Sodium lauryl sulphate], the “enhancement of protease activity” value (LipPI12 protease [2]) was 70%.
For `[Cl][Mn][Cl]` [MnCl2], the “protease relative activity” value (LipPI12 protease [5]) was 40%.
In the case of `CCCO` [propanol], the “lipase activity in solvent” value (LipPI12 lipase [4]; control in water) is reported as > 160%.
For `O=S(=O)(F)Cc1ccccc1` [PMSF, phenylmethylsulphonyl fluoride], the “inhibition of protease (words)” value (LipPI12 protease [3]) was “partially inhibited” and the “inhibition of lipase” value (LipPI12 lipase [8]) was “partially inhibited”.
For TWEEN™ 80, the “enhancement of protease activity” value (LipPI12 protease [2]) was 30%.
`CCCCCCCCCC` [decane] was tested, and the “effect of organic solvent on lipase” value (LipPI12 lipase [4]) was “total elimination of activity”.
In the case of `Cc1ccccc1` [toluene], the “decrease of lipase activity” value (LipPI12 lipase [4]) is reported as “more than 50%”.
For `CCCCCCCCCCCC` [dodecane], the “effect of organic solvent on lipase” value (LipPI12 lipase [4]) was “good stability”.
`CC1(C)S[C@@H]2[C@H](NC(=O)[C@H](N)c3ccccc3)C(=O)N2[C@H]1C(=O)O` [Ampicilin] was tested, and the “resistance of isolate PI12” value (isolate PI12) was “resistance”.
`CCCCCCCCCCCC(=O)OCC(COC(=O)CCCCCCCCCCC)OC(=O)CCCCCCCCCCC` [trilaurin] was tested, and the “relative activity, triglyceride as substrate” value (LipPI12 lipase [10]) was 100%.
`O=S(=O)([O-])[O-].[Zn+2]` [ZnSO4] was tested, and the “effect of metal ion on protease activity” value (LipPI12 protease [5]) was “do not affect”.
`CCCCCCCCCCCCCCCC` [hexadecane] was tested, and the “effect of organic solvent on protease” value (LipPI12 protease [9]) was “tolerance” and the “effect of organic solvent on lipase” value (LipPI12 lipase [4]) was “good stability”.
With TWEEN™ 60 the “effect of surfactant on lipase activity” value (LipPI12 lipase [1]) was “retains its activity” and the “effect of surfactant on protease activity” value (LipPI12 protease [2]) was “retain its activity”.
In the case of `CCOCC` [Diethyleter], the “effect of organic solvent on lipase” value (LipPI12 lipase [4]) is reported as “total elimination of activity”.
